Columns and labels:
Type in all cases: cell-based
SARS-CoV-2 [1] = conditions: SARS-CoV-2 infected Vero E6 cells, 48 hours of incubation
[2] = Alamar Blue cell viability (cytotoxicity) assay; conditions: African green monkey, Vero E6 host cells
Experimental: (§1) Compounds to be tested were dissolved in DMSO at 20 mM concentration and stored at −20° C. Stock solutions were diluted with DMEM medium to result 100 μM concentration. The DMSO content was 0.5% in the highest concentration containing wells.
(§2) In vitro cytotoxicity testing of the compounds was performed by the Alamar Blue cell viability assay. Briefly, Vero E6 cells were plated in a 96-well flat bottom tissue culture plates in 10% FBS containing DMEM media (5000 cells/100 μL) one day prior to experiment. Before the test, 50 μL supernatant was removed and replaced with 50 μL DMEM serum free (SFM) medium. […] Two days after, 20 μL Alamar Blue (resazurin sodium salt, Merck) solution (0.15 mg/mL in PBS, filtered […] Merck) was added to each well and after 3-3.5 hrs of incubation the fluorescence was measured at λEx=530/30 and at λEM=610/10 nm using a Synergy H4 multi-mode microplate reader (BioTek). All measurements were performed in quadruplets and the mean IC50 values together with SEM were represented on the graphs.

Vero E6 cells = assay: Alamar Blue cell viability (cytotoxicity) assay; conditions: 48 hrs
Experimental: as §1, §2

SARS-CoV-2 [3] = assay: Viral copy number by RT-qPCR from supernatant; conditions: supernatant of infected Vero E6 cells

CC(C)=C1C[C@@]2(C)C(=CC1=O)CC[C@@H](O)[C@@H]2C [isopetasol, (4aR,5R,6R)-6-hydroxy-4a,5-dimethyl-3-propan-2-ylidene-5,6,7,8-tetrahydro-4H-naphthalen-2-one]
antiviral effect (virus-induced CPE, TCID50/mL) (SARS-CoV-2 [1]): markedly different than petasol

CCN(CC)CCCC(C)Nc1ccnc2cc(Cl)ccc12 (stereo not drawn) [Chloroquine]
IC50 at 48 h [2]: 34 µM

CC(=O)Oc1ccccc1C(=O)Nc1ncc([N+](=O)[O-])s1 [Nitazoxanide]
toxicity on the host cells (Vero E6 cells; range up to 100 μM): around 35%

C=C(C)[C@H]1C[C@@]2(C)C(=CC1=O)CC[C@@H](O)[C@@H]2C [neopetasol, (3R,4aR,5R,6R)-6-hydroxy-4a,5-dimethyl-3-prop-1-en-2-yl-3,4,5,6,7,8-hexahydronaphthalen-2-one]
antiviral effect (virus-induced CPE, TCID50/mL) (SARS-CoV-2 [1]): markedly different than petasol

C=C(C)[C@@H]1C[C@@]2(C)C(=CC1=O)CC[C@@H](O)[C@@H]2C [Petasol, (3S,4aR,5R,6R)-6-hydroxy-4a,5-dimethyl-3-prop-1-en-2-yl-3,4,5,6,7,8-hexahydronaphthalen-2-one]
viral RNA copy numbers (antiviral effect) (SARS-CoV-2 [3]): high similarity with the TCID50 values | in vitro cytotoxicity (not cytotoxic up to) (Vero E6 cells; Vero E6 host cells): > 100 µM

Reference: US20250248965A1, “HEXAHYDRONAPHTHALEN-2-ONE DERIVATIVES FOR USE AGAINST A CORONAVIRUS INFECTION” (TÁMOGATOTT KUTATÓCSOPORTOK IRODÁJA, priority 2021, published 2025)
